Results taken from US11203601B2, “Tricyclic compounds as glycogen synthase kinase 3 (GSK3) inhibitors and uses thereof” (The Broad Institute, Inc., priority 2017, dated 2021).

Columns and labels:
Assay in all cases: Carna kinome panel
Assay type in all cases: biochemical
Details in all cases: read-out: % Inhibition at 10 μM of the test compound
EPHA3 = EPHA3 (Homo sapiens (Human), UniProt P29320)
MLK2_ Cascade = MLK2_ Cascade (Homo sapiens (Human), UniProt Q02779)
TNIK = TNIK (Homo sapiens (Human), UniProt Q9UKE5)
KIT = KIT (Homo sapiens (Human), UniProt P10721)
FLT1 = FLT1 (Homo sapiens (Human), UniProt P17948)
SIK = SIK (Homo sapiens (Human), UniProt P57059)
PRKX = PRKX (Homo sapiens (Human), UniProt P51817)
MST2 = MST2 (Homo sapiens (Human), UniProt Q13188)
IKKε = IKKε (Homo sapiens (Human), UniProt Q14164)
MAP2K4_Cascade = MAP2K4_Cascade (Homo sapiens (Human), UniProt P45985)
MAP2K4_Cascade, sequence (P45985 whole entry): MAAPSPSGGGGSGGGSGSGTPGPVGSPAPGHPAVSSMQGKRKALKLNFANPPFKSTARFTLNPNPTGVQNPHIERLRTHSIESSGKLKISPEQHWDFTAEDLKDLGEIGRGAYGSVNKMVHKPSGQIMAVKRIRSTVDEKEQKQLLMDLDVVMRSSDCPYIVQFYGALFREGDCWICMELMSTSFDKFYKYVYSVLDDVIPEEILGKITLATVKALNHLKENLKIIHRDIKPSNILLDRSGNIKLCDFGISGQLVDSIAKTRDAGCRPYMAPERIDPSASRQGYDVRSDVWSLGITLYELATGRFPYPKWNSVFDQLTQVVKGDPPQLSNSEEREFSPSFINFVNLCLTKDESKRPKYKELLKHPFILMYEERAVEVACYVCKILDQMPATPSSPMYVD

PLK3 = PLK3 (Homo sapiens (Human), UniProt Q9H4B4)
PLK3, sequence (Q9H4B4 whole entry): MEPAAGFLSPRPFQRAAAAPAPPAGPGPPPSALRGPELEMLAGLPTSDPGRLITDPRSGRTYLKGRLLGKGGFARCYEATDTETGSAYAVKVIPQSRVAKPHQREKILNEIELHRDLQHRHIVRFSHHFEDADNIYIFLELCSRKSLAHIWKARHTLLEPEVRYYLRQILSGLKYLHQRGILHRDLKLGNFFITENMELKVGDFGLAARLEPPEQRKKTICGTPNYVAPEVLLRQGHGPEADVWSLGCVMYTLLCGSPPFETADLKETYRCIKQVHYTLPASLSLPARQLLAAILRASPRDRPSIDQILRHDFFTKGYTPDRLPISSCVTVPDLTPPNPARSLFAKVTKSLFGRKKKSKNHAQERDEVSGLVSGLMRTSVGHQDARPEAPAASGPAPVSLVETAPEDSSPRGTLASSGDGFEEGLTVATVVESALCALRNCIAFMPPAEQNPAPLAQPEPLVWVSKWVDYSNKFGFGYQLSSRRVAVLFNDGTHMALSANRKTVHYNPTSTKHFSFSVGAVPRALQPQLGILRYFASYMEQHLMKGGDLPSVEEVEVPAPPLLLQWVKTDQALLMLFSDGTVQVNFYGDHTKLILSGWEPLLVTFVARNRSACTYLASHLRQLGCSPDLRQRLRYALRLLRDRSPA

MAP3K2_Cascade = MAP3K2_Cascade (Homo sapiens (Human), UniProt Q9Y2U5)
PKD3 = PKD3 (Homo sapiens (Human), UniProt O94806)
PKCδ = PKCδ (Homo sapiens (Human), UniProt Q05655)
MRCKβ = MRCKβ (Homo sapiens (Human), UniProt Q9Y5S2)
MSK2 = MSK2 (Homo sapiens (Human), UniProt O75676)
MARK2 = MARK2 (Homo sapiens (Human), UniProt Q7KZI7)
ABL(T315I) = ABL(T315I) (Homo sapiens (Human), UniProt P00519, T315I)
BRK = BRK (Homo sapiens (Human), UniProt Q13882)
PAK1 = PAK1 (Homo sapiens (Human), UniProt Q13153)
NEK9 = NEK9 (Homo sapiens (Human), UniProt Q8TD19)
NDR1 = NDR1 (Homo sapiens (Human), UniProt Q15208)
HER2 = HER2 (Homo sapiens (Human), UniProt P04626)
CaMK2α = CaMK2α (Homo sapiens (Human), UniProt Q9UQM7)
RSK1 = RSK1 (Homo sapiens (Human), UniProt Q15418)
SRC = SRC (Homo sapiens (Human), UniProt P12931)
NEK4 = NEK4 (Homo sapiens (Human), UniProt P51957)
NEK4, sequence (P51957 whole entry): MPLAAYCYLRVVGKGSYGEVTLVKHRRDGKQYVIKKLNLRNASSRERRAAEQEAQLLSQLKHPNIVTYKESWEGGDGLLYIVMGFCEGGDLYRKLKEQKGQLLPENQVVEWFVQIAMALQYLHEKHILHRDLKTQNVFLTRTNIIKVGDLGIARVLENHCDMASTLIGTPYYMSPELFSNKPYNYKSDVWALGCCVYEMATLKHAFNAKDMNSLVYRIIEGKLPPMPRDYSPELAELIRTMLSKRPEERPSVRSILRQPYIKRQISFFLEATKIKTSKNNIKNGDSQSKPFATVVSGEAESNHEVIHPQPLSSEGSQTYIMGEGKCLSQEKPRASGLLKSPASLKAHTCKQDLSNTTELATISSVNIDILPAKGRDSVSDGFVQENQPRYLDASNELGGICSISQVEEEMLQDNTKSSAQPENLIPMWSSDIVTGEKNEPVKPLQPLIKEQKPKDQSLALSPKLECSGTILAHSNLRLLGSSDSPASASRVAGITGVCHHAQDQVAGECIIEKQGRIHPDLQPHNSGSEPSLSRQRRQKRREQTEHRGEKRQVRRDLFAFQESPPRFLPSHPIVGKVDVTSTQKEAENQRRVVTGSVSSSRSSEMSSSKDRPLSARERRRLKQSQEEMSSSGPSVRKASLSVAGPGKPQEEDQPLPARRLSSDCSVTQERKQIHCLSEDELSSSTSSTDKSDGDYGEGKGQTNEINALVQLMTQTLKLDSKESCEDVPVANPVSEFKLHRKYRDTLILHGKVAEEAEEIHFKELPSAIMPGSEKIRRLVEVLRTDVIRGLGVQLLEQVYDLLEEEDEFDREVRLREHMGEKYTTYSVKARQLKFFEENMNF

MNK2 = MNK2 (Homo sapiens (Human), UniProt Q9HBH9)
MNK2, sequence (Q9HBH9 whole entry): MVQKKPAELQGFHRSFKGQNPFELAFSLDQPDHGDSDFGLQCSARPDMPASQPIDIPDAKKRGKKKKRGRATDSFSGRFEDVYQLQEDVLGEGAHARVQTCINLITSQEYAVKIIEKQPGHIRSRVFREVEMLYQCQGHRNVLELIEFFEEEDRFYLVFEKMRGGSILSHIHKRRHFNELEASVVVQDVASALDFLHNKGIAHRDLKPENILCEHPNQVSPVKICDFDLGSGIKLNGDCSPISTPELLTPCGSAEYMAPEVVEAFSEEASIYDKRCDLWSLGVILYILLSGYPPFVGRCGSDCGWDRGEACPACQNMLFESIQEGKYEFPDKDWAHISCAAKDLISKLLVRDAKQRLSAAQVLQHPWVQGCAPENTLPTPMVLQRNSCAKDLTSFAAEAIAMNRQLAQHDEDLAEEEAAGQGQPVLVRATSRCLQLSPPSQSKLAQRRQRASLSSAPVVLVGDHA

BRSK2 = BRSK2 (Homo sapiens (Human), UniProt Q8IWQ3)
PYK2 = PYK2 (Homo sapiens (Human), UniProt Q14289)
ALK(C1156Y) = ALK(C1156Y) (Homo sapiens (Human), UniProt Q9UM73, C1156Y)
EPHB3 = EPHB3 (Homo sapiens (Human), UniProt P54753)
RSK3 = RSK3 (Homo sapiens (Human), UniProt Q15349)
TSSK3 = TSSK3 (Homo sapiens (Human), UniProt Q96PN8)
CaMK2γ = CaMK2γ (Homo sapiens (Human), UniProt Q13555)
EGFR(d746-750/T790M) = EGFR(d746-750/T790M) (Homo sapiens (Human), UniProt P00533, DEL746-750/T790M)
EGFR(d746-750/T790M), sequence (P00533 other isoform, or with tags, fused parts or gaps T790M/del 1-668/del 746-750 limits assumed): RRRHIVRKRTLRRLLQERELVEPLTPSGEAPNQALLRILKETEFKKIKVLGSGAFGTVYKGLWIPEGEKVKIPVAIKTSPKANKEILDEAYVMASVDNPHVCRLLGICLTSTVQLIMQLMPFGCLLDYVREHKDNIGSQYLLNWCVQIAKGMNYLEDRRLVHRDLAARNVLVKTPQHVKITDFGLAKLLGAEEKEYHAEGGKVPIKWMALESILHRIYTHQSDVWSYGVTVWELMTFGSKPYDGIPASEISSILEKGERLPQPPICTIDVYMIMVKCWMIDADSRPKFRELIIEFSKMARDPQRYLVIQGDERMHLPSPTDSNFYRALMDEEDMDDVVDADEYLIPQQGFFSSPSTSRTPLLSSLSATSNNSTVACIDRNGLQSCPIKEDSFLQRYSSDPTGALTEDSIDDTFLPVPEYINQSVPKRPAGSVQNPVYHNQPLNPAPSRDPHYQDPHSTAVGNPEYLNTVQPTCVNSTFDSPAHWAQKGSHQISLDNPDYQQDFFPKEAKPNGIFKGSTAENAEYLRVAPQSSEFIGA

PKR = PKR (Homo sapiens (Human), UniProt P19525)
CK2α2/β = CK2α2/β (Homo sapiens (Human), UniProt P19784)
CK2α2/β, sequence (P19784 whole entry, looked up): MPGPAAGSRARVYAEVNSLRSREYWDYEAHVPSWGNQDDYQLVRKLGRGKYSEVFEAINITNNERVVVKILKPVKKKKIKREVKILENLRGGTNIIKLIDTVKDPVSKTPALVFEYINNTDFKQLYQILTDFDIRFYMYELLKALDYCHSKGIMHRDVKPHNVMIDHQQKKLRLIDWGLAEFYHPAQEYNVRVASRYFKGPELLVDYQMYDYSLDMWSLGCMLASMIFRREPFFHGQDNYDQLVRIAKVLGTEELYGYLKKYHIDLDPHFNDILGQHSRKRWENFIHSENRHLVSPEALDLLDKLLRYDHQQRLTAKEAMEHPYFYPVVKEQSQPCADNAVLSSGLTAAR
CK2α2/β, sequence (P67870 whole entry partner, looked up): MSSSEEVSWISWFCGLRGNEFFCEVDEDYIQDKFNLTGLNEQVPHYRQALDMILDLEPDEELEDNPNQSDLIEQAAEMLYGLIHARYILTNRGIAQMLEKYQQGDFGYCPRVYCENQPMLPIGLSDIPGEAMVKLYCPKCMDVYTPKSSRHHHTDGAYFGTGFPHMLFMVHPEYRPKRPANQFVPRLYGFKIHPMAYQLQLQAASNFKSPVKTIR
Protocol: Briefly, a selection of compounds was screened against a panel of kinases at a single concentration of 10 μM. […] This was completed using one of two assays, depending on the kinase being examined: 1) IMAP Assay. A solution of 4× inhibitor, 4× substrate/ATP/metal solution and 2× kinase solution was prepared with assay buffer (20 mM HEPES, 0.01% Tween-20, 2 mM DTT, pH 7.4) and mixed, then incubated in 384-well black plates for 1 hour at room temperature. The IMAP binding reagent (IMAP Screening Express kit; Molecular Devices) was added to each well and incubated for 30 minutes. […] 2) Off-Chip Mobility Shift Assay (MSA). A solution of 4× inhibitor, 4× substrate/ATP/metal solution and 2× kinase solution was prepared with assay buffer (20 mM HEPES, 0.01% Triton X-100, 2 mM DTT, pH 7.5) and mixed, then incubated in 384-well plates for 1 or 5 hours depending on the kinase, at room temperature. Termination buffer (QuickScout Screening assist MSA; Carna Biosciences) was added to each well. The entire reaction mixture was then applied to a LabChip3000 system (Caliper Life Science), and the product and substrate peptide peaks were separated and quantified. […] The entire reaction mixture was then applied to a LabChip3000 system (Caliper Life Science), and the product and substrate peptide peaks were separated and quantified.

MET(Y1235D) = MET(Y1235D) (Homo sapiens (Human), UniProt P08581, Y1235D)
MET(Y1235D), sequence (P08581 25-1390 Y1235D): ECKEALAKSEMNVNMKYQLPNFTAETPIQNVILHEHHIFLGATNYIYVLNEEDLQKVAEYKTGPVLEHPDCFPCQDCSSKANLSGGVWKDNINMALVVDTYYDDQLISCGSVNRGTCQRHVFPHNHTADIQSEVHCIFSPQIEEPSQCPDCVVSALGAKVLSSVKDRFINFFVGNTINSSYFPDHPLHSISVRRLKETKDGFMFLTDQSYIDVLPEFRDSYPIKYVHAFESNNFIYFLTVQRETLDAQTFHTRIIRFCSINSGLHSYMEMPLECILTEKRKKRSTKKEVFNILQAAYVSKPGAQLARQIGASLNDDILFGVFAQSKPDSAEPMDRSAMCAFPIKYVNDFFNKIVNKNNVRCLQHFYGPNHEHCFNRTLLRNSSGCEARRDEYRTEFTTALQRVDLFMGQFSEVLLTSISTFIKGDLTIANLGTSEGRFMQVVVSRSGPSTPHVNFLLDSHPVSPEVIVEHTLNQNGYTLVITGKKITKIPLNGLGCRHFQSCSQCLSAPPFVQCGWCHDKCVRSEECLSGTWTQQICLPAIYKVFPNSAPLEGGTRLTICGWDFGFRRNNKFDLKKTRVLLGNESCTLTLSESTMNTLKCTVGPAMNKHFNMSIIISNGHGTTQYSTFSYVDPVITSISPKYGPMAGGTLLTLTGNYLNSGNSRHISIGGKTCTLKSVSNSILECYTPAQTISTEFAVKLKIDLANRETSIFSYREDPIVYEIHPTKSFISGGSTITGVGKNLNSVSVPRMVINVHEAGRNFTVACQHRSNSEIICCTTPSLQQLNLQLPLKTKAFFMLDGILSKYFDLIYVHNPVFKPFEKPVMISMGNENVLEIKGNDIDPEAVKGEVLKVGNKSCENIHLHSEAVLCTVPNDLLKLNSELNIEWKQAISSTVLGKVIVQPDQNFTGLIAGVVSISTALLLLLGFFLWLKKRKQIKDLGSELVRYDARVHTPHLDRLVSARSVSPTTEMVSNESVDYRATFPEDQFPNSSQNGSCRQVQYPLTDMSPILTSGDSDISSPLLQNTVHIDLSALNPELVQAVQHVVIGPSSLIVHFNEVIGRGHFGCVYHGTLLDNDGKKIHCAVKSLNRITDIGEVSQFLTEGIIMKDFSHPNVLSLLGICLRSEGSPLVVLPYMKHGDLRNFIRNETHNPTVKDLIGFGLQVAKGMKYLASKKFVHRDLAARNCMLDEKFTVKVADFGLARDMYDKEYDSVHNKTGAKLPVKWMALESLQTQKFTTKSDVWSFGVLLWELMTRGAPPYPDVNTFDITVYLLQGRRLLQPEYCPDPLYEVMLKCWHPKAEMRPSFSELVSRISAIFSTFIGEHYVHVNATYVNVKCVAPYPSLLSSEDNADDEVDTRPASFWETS

EGFR(T790M/L858R) = EGFR(T790M/L858R) (Homo sapiens (Human), UniProt P00533, L858R/T790M)

CCC1(c2ccccc2)C2=C(CC(C)(C)CC2=O)Nc2ncsc21 (stereo not shown) [Compound 1, 9-Ethyl-6,6-dimethyl-9-phenyl-5,6,7,9-tetrahydrothiazolo[4,5-b]quinolin-8(4H)-one]
inhibition at 10 µM (EPHA3): 22.5% | inhibition at 10 µM (MLK2_ Cascade): 16.1% | inhibition at 10 µM (TNIK): 8.6% | inhibition at 10 µM (KIT): 7.1% | inhibition at 10 µM (FLT1): 6.2% | inhibition at 10 µM (SIK): 5.6% | inhibition at 10 µM (PRKX): 4.2% | inhibition at 10 µM (MST2): 4.2% | inhibition at 10 µM (IKKε): 4.2% | inhibition at 10 µM (MAP2K4_Cascade): 3.7% | inhibition at 10 µM (PLK3): 3.4% | inhibition at 10 µM (MAP3K2_Cascade): 3.4% | inhibition at 10 µM (PKD3): 2.7% | inhibition at 10 µM (PKCδ): 2.4% | inhibition at 10 µM (MRCKβ): 2% | inhibition at 10 µM (MSK2): 0.7% | inhibition at 10 µM (MARK2): 0.4% | inhibition at 10 µM (ABL(T315I)): 0.4% | inhibition at 10 µM (BRK): 0.3% | inhibition at 10 µM (PAK1): 0.3% | inhibition at 10 µM (NEK9): 0.3% | inhibition at 10 µM (NDR1): 0.2% | inhibition at 10 µM (HER2): -1% | inhibition at 10 µM (CaMK2α): -1.6% | inhibition at 10 µM (RSK1): -2% | inhibition at 10 µM (SRC): -2.2% | inhibition at 10 µM (NEK4): -2.5% | inhibition at 10 µM (MNK2): -2.8% | inhibition at 10 µM (BRSK2): -2.9% | inhibition at 10 µM (PYK2): -3.1% | inhibition at 10 µM (ALK(C1156Y)): -3.7% | inhibition at 10 µM (EPHB3): -4.8% | inhibition at 10 µM (RSK3): -4.9% | inhibition at 10 µM (TSSK3): -5.1% | inhibition at 10 µM (CaMK2γ): -5.2% | inhibition at 10 µM (EGFR(d746-750/T790M)): -5.6% | inhibition at 10 µM (PKR): -8.9% | inhibition at 10 µM (CK2α2/β): -11.4% | inhibition at 10 µM (MET(Y1235D)): -12.2% | inhibition at 10 µM (EGFR(T790M/L858R)): -15.5%
